The record followed here is patent publication US9517221B2, “(2R)-2-propyloctanoic acid for functional brain disease” (ONO PHARMACEUTICAL CO., LTD., priority 2006, dated 2016).

SMILES strings stand for the structures.

The subject of assay [1] is Wistar male rats. Put plainly: Rat learned helplessness test (Test Example 3). The settings on record: oral once a day for 6 days and 1 hour before shock training on 7th day; present tense. It is filed as in vivo. Here is the method: A learned helplessness test is carried out using a two way type shuttle box which is divided into two by a gate which can be opened and closed so that shift to right and left is possible. Wistar male rats are used in the test, and a shock training is carried out on the 1st day of the test. The shock training is carried out by putting the rats in the apparatus under an inescapable condition by closing the gate, and applying an electric shock (10 seconds×90 times, intervals of 2 seconds) through a floor grid. In this connection, the rats of the control group are not treated with the electric shock and allowed to stay free in the apparatus for the same period of time. An escape test is carried out after 24 hours of the shock training. The escape test is carried out by putting the rats in the apparatus under an escapable condition by opening the gate, and after 5 minutes of adaptation, by applying a light stimulation and a sound stimulation (conditional stimulation) simultaneously for 5 seconds and subsequently applying an electric shock (no conditional stimulation) for 10 seconds. By regarding a case of no escaping and continuously receiving the electric shock as escape failure, this trial is repeated 40 times (intervals of 5 seconds), and behavior of the rats is analyzed by a behavior analysis software (MED-PC Version 1.16). […]

Assay [2] has as its system Wistar male rats. Put plainly: Confirmation test of anti-stress activity (Test Example 2). It counts as in vivo, rat. The settings on record: oral, 30 minutes before stress loading; counted 1 hour thereafter; present tense.
The next assay deals with SD rats. Briefly: Water-immersion stress-loaded elevated plus maze test (Test Example 1). It counts as in vivo, rat. As to conditions: oral, 1 hour before test, written in present tense. The protocol:
Two open arms of the same length (50×10 cm) and two closed arms of the same length (50×10 cm) (a wall of 30 cm is set) are set crossing at a right angle at a height of 50 cm from the floor and used as an elevated plus maze apparatus. Constant lighting is effected by attaching white lights to 70 cm over both of the open arms.
Using a pool (40×30×38 cm) charged with water of 22° C. to a depth of 25 cm, 120 seconds of forced swimming is loaded on SD rats of 7 weeks of age (Charles River Japan). After 9 minutes of the water-immersion stress-loading, the rats are allowed to stand still on a central part of the apparatus, and the behavior of the rats are analyzed for 5 minutes by an automatic behavior tracing analysis system (EthoVision Version 3.0, Noldus Information Technology) to calculate its staying time (second) on the open arms.
In this connection, rats of the control group are not subjected to the water-immersion stress-loading. Also, a vehicle is orally administered to the vehicle treating group 1 hour before the commencement of the test, and a test drug of various concentrations is administered to the test drug treating group.

Assay [3] concerns olfactory bulbectomized rats. Briefly: Anxiolytic behavior on elevated plus maze of olfactory bulbectomized rats. It counts as in vivo, rat. The settings on record: for Time (seconds) stayed on closed arm (mean ± S. E.) / Time (seconds) stayed on open arm (mean ± S. E.): 5 minutes test 1 hour after 8 days administration. The protocol:
SPF rats (Crlj: WI) were used in the test. The animal for olfactory bulbectomy was anesthetized with pentobarbital sodium (Nembutal R Injection, Dainippon Pharmaceutical, dose: 1 mL/kg (intraperitoneal administration)), and the head was fixed using a brain stereotaxic apparatus (ASI Instruments, Inc., NARISHIGE). After incising the head skin, holes are opened at right and left olfactory bulb regions of the skull using a dental drill (manufactured by […]), and the right and left olfactory bulbs were removed by sucking them using an aspirator connected to a tip-removed oral sonde, and the head skin was stitched thereafter. In this connection, in the case of the animals for sham-operation, anesthesia, brain fixation and head skin incision were carried out in the same manner as in the animals for olfactory bulbectomy, holes are opened at right and left olfactory bulb regions of the skull and the head skin was stitched without carrying out suction removal of the olfactory bulbs. The rats after olfactory bulbectomy were put into a series of five stainless steel cages, each of which was partitioned into two parts with an acrylic board for individual rearing space, and individually reared under a dark condition. The rats were subjected to the following tests of (2) and (3). • (a) Sham-operation group (12 animals); • (b) Vehicle control group (12 animals); • (c) 3 mg/kg administration group (12 animals) of (2R)-2-propyloctanoic acid; • (d) 10 mg/kg administration group (12 animals) of (2R)-2-propyloctanoic acid; • (e) 10 mg/kg administration group (12 animals) of Milnacipran hydrochloride. [Drug Administration] As shown below, drug solution or vehicle was administered once a day for 8 days, a total of 8 times, at a respective liquid dose of 5 mL/kg. • (a) Sham-operation group: vehicle (0.1% by volume Tween 80) aqueous solution; • (b) Vehicle control group: vehicle (0.1% by volume Tween 80) aqueous solution; • (c) 3 mg/kg administration group of (2R)-2-propyloctanoic acid: a drug solution in which (2R)-2-propyloctanoic acid was prepared to be 0.6 mg/mL with the vehicle; • (d) 10 mg/kg administration group of (2R)-2-propyloctanoic acid: a drug solution in which (2R)-2-propyloctanoic acid was prepared to be 2.0 mg/mL with the vehicle; • (e) 10 mg/kg administration group of milnacipran hydrochloride: a drug solution in which Milnacipran hydrochloride was prepared to be 2.3 mg/mL with the vehicle (Milnacipran itself is included in 2.0 mg/mL). (2) Examination of the Activity for Hyperemotional Reactivity <Evaluation Method> Evaluation of the anxiolytic behavior on an elevated plus maze was carried out once per animal for 5 minutes from 1 hour to 1 hour and 10 minutes after 8 days of the administration, in accordance with the following method. Each animal was softly put on a platform of elevated plus maze which is described later, toward one of the open arms. Thereafter, behavior of the animal was shot using a video camera (CCD-DC430, SONY) set up the elevated plus maze, and the images were analyzed by a video image behavior analyzing device (Etho Vision, manufactured by Noldus). Additionally, the images from the video camera were recorded and handled as reference data. In this connection, when the animal fell, it was regarded as staying on the open arm, and the animal was quickly returned to the place or the open arm where it was present just before the falling. The evaluation was carried out on the respective items shown by A to H (A: frequency of approach to the open arm, B: frequency of approach to the closed arm, C: frequency of approach to the platform, D: stayed time (second) on the open arm, E: stayed time (second) on the closed arm, F: stayed time (second) on the platform, G: defecation frequency on the open arm, platform and closed arm, and H: urination frequency on the open arm, platform and closed arm), by measuring A to F using the video image behavior analyzing device, and by measuring G and H after completion of the measurement. […]

The mark [4] stands for this setting: dose 3 mg/kg once a day for 8 days.
Where [5] appears, read: dose 10 mg/kg once a day for 8 days.

With `CCCCCC[C@@H](CCC)C(=O)O` [(2R)-2-propyloctanoic acid], the “Number of escape failures versus vehicle treating group” value in the assay on Wistar male rats [1] is “inhibits increase of the number of escape failures”. For the same molecule, the “Number of defecations versus vehicle treating group” value in the assay on Wistar male rats [2] is “significantly suppress the number of defecations”. In addition, the “Staying time on the open arms versus vehicle treating group” value with SD rats is reported as “prolongs the staying time on the open arms”. In assay [3] (setting [4]), the “Time (seconds) stayed on closed arm (mean ± S. E.)” value was determined as 188.7 ± 19.7 s and the “Time (seconds) stayed on open arm (mean ± S. E.)” value was 73.7 ± 17.5 s. In assay [3] (setting [5]), the “Time (seconds) stayed on closed arm (mean ± S. E.)” value turned out to be 209.4 ± 24.1 s and the “Time (seconds) stayed on open arm (mean ± S. E.)” value was 57.7 ± 22.1 s. The “Anxiolytic behavior versus vehicle control group” value in assay [3] (olfactory bulbectomized rats, elevated plus maze, result in words) was “inhibited the anxiolytic behavior”.
